# Experiments:
# brain homogenate binding = type: in vitro ADME, mouse; conditions: fraction unbound
# [1] = metabolite identification; type: in vitro ADME; conditions: ± NADPH; for metabolites of the furanyl ring: 60 min; for parent in 60 min samples: UV peak areas
# Experimental: Across species, 19d had acceptable fraction unbound in both plasma (fu (plasma): 0.03 (human), 0.041 (rat), 0.025 (cyno), 0.039 (dog) and 0.056 (mouse)) and brain (fu (brain): 0.034 (rat) and 0.081 (mouse)).
# Figure 5 Metabolite identification of VU6024578 (19d) in rat and human liver microsomes. […] Thus, we incubated 19d in rat and human liver microsomes (with and without NADPH) for 60 min and monitored by both extracted ion and UV detection for the production of metabolites and consumption of parent.
# [2] = rat IV/PO PK crossover study; type: in vivo
# From the text: Thus, 19d was a stable chemical entity in vivo. […] Overall, the rat PK and CNS penetration was supportive of in vivo work and progression down the development flow-chart.
smiles,measurement,setting,value
"Cn1nc(-c2ccnn2C)cc1CNC(=O)c1cc(-c2ccco2)ccc1Cl [Compound 19d, 2-Chloro-N-((1,2′-dimethyl-1H,2’H-[3,3′-bipyrazol]-5-yl)methyl)-5-(furan-2-yl)benzamide]","fu (brain), mouse",brain homogenate binding,0.081
same,metabolites of the furanyl ring,[1]; human liver microsomes,no metabolites corresponding to oxidation or opening of the furanyl ring were detected
same,parent in 60 min samples,[1]; human liver microsomes,major component observed
same,metabolites of the furanyl ring,[1]; rat liver microsomes,no metabolites corresponding to oxidation or opening of the furanyl ring were detected
same,parent in 60 min samples,[1]; rat liver microsomes,major component observed
same,Vss,[2]; 1 mg/kg IV,1.78 L/kg
same,plasma clearance (CLp),[2]; 1 mg/kg IV,8.3 mL/min/kg
same,t1/2,[2]; 1 mg/kg IV,3.9 h
same,oral bioavailability (%F),[2]; PO 10% tween 80,100%
same,Cmax,[2]; PO arm,4150 ng/mL
same,Tmax,[2]; PO arm,2 h
same,AUC,"[2]; plasma, PO arm",24600 ng·h/mL

# From PMC11684029, “Discovery of VU6024578/BI02982816: An mGlu1 Positive Allosteric Modulator with Efficacy in Preclinical Antipsychotic and Cognition Models” (Journal of Medicinal Chemistry, 2024)
